Measurements taken from US6663859B2, “Compositions for enhancing the immune response” (Bioenergy, Inc., priority 2000, dated 2003).

What was measured:
[1] = system: weanling Swiss ICR mice; experiment: In vivo loading with ribose, planned immune response and pathogen challenge studies; set-up: species or system mouse; settings: expected result
Excerpt: For the in vivo studies, weanling Swiss ICR mice (three weeks old) were fed a fully nutritious, casein-based diet (AIN 93G).
This pilate study will be followed by a broader study with ten animals per groups. Popliteal lymphoproliferation, delayed-type hypersensitivity (DTH) and thymic and splenic lymphocyte proliferation will be tested. To determine popliteal lymphoproliferation, the popliteal node will be excised and weighed after antigen injection into the hind-leg footpad. DTH can be assessed by measuring ear swelling after sensitization and stimulation with the prop antigen dinitrofluorobenzene. Thymic and splenic proliferation will be determined from cells isolated from the thymus and spleen and pulsed with tritiated thymidine. These four measures are all T-cell responses.
Another group of animals will be fed as above. […] T-cell numbers, proliferation and migration, B-cell numbers, NK cell numbers and migration, neutrophil numbers, migration and oxidative burst will be determined. […] Cells will be quantitated by flow cytometry, oxidative burst will be determined spectrophotometrically and proliferation by incorporation of tritiated thymidine. Cell migration will be determined by flow cytometry as the percentage of cells. In addition, the activity of myeloperoxidase, a degradative enzyme specific to neutrophils, can be measured in lung tissue to determine this cell's migration. […]

[2] = system: various cell cultures; settings: 12.5 to 50 mM; Marini et al 1985; cited from earlier work
[3] = Viability of HL-60 cells (trypan dye exclusion); format: cell-based, human; settings: human, HL-60 cells; for viability at 96 h: Table 1, 96 h incubation, RA 1.0 μmol/L, ribose 10 mmol/L
Excerpt: (§1) For the in vitro studies, HL-60 cells (American Type Culture Collection, Manassas, Va.), an immortal human lymphocyte cell line, at approximately passage twenty were maintained between 2.0×10^5 cells/ml in RPMI 1640 medium containing HEPES buffer (Cellgro, Mediatech Inc., Herdon, Va.), 2 mmol/L L-glutamine (Cellgro), 1% antimycotic (Cellgro), 10% heat treated fetal bovine serum (FBS: GibcoBRL; Life Technologies, Baltimore, Md.), and 0.1% gentamicin (GibcoBRL).
(§2) Experimental flasks were initiated at a concentration of 2.5×10^5 cells/ml. Differentiation of HL-60 cells was induced using all-trans retinoic acid (RA) prepared in 95% ethanol. RA was added to flasks at a concentration of 1.0 μmol/L such that the ethanol concentration added to the flask was less than 0.1%. D-Ribose preparations were made by dissolving powdered ribose (Bioenergy, Minneapolis, Minn.) in RPMI medium followed by sterile filtration.
(§3) The specificity of ribose, time and dose response was examined. The doses of ribose were 1, 5, 10, 25 and 50 mmol/L. In experiments in which one concentration of ribose was used, 10 mmol/L was the dose chosen. The effect of timing of the dose was explored by adding ribose at various times after the addition of the retinoic acid. Specificity was examined by substituting glucose, to eliminate the nonspecific effects of ribose as a substrate for glycolysis or gluconeogenesis, or change in osmolarity.
(§4) Following ninety-six hours of incubated (or as specified), cells were harvested, counted by hemocytometer and viability assessed using trypan dye exclusion. For growth and viability determinations, cells were counted three times within one experiment. Results shown were from at least three experiments. Cells were washed twice with phosphate buffered salt solution (PBS) and brought to a concentration of 2.0×10^7 cells/ml PBS.

[4] = system: HL-60 cells; experiment: Viability of HL-60 cells (trypan dye exclusion); format: cell-based, human; settings: summary of Table 1
Excerpt: as §1, §2, §3, §4

[5] = healthy males; U.S. Pat. No. 6,159,942; cited from earlier work
[6] = system: HL-60 cells; experiment: Respiratory burst (superoxide anion, ferricytochrome c reduction, PMA stimulated); format: cell-based, human; settings: for increase in rate of superoxide generation compared to HL-60 control cells: FIG. 3
Description: Specific cells undergo an increase in oxygen uptake when presented with appropriate stimuli, such as invading microorganisms or phorbol ester. The cells utilize this oxygen to produce a series of free radicals that kill the invading microorganism. Production of free radicals occurs via an enzyme called NADPH oxidase. Free radical production is measured spectrophotometrically by a change in color of ferricytochrome c.
The ability of cells to produce superoxide anion was measured by the reduction of ferricytochrome c via a microtiter plate (Levy et al (1990)). Fifty microliters of cells (1×10^7 cells/ml) previously incubated with retinoic acid, ribose or glucose were plated in triplicate wells of a microtiter plate. Each well contained 10 μl of 1.5 mol/L ferricytochrome c substrate and 100 μl of DPBD containing 1 mmol/L glucose. Cells were stimulated to produce superoxide anion by addition of 10 μl of 1.6 μmol/L phorbol 12-myristate 13-acetate (PMA). A kinetic reading on dual wavelengths of 540-490 nM was taken using a Molecular Devices microtiter plate reader (UVMax, Menlo Park, Calif.). Change in absorbance was measured over ten minutes. In order to ensure that reduction of ferricytochrome was the result of superoxide anion, experimental samples were incubated with 10 μl of bovine erythrocyte superoxide dismutase (7500 units/ml). […] Respiratory burst was expressed as the change in optical density/10^6 cells.

[7] = system: HL-60 cells; experiment: ATP determination in HL-60 cells; format: cell-based, human; settings: HL-60 control about five μmoles per 10^9 cells
Description: Determination of ATP was performed using a kit purchased from Sigma Diagnostics (St. Louis, Mo.) with slight modifications. 1.0 ml of 12% trichloroacetic acid (TCA) and 1.0 ml of prepared cell suspension (1×10^7 cells/ml) were combined, vortexed and placed on ice for five minutes. Tubes were then centrifuged (Jouann, at 2000×g for 8 minutes) to obtain a clear supernatant. The following reagents were then added into vials containing 0.3 mg NADH: 1.0 ml phosphoglyceraldehyde buffered solution, 1.5 ml water, and 0.15 ml cell supernatant. Samples were distributed into two tubes. One tube was used to obtain an initial spectrophotometric absorbance at 340 nm. Fifteen μl of GAPD/PGK enzyme mixture were added to the second tube and read after ten minutes. Changes in absorbance were calculated and results were expressed as μmol of ATP per 1×10^9 cells.

[8] = system: spleen cells; experiment: PHA-stimulated spleen cell proliferation (tritiated thymidine); format: cell-based, mouse
Description: (§5) Mice are the species of choice for studies of the immune response because of the numerous nutritional and interventional studies that have been performed on mice. Details of its immune response are well studied and the inbred lines used eliminate any genetic differences. Spleens and thymus were removed from weanling Swiss ICR mice and cell suspensions prepared. The spleen and thymus cells were plated in a 96-well plate and various levels of ribose added to each well in triplicate. Phytohaemagglutinin (PHA), a T-cell stimulator, was added and the cells incubated for 48 hours. Tritiated Thymidine was then added, the cells harvested 24 hours later, and radioactivity incorporated was determined by liquid scintillation counting.

[9] = as much as 20 gm; cited from earlier work
[10] = system: thymus cells; experiment: PHA-stimulated thymus cell proliferation (tritiated thymidine); format: cell-based, mouse
Description: as §5

[11] = system: HL-60 cells; experiment: Cellular proliferation of HL-60 cells (hemocytometer count); format: cell-based, human; settings: for reduction in cell growth compared to control HL-60 cells: 96-hour incubation; for Cell Growth (10^5 cells/ml): Table 1, 96 h incubation, initial 2.5×10^5 cells/ml, RA 1.0 μmol/L, ribose 10 mmol/L; for change in cell number over the 96-hour incubation period: initial cell density 2.5×10^5
Excerpt: as §1, §2, §3, §4

[12] = system: HL-60 cells; experiment: Cell surface markers of maturity (CD11b, CD117) on HL-60 cells; format: cell-based, human; settings: for expression of cell surface marker reactive with CD11b antibody: FIG. 1
Description: Cell samples for the detection of cell surface molecules were prepared for flow cytometry in 12×17 mm capped conical tubes. To each tube, 30 μl of PBS containing 2% FBS was added. To each of triplicate tubes, a phycoerythrin (PE) labeled antibody (PharMingen, San Diego, Calif.) was added: 20 μl of CD1 lb, 20 μl of CD117, or 20 μl of isotype control (Mouse IgG1,κ). Fifty microliters of prepared cell suspension were added to each tube, followed by gentle mixing. Tubes were placed on ice for forty-five minutes after which 2 ml of cold PBS containing 2% FBS were added to each tube. Tubes were centrifuged (Jouann, at 300×g for 10 minutes) at approximately 5° C. and supernatant removed. One ml of cold 0.5% paraformaldehyde solution was added to the pellet and tubes were vortexed immediately. Prior to analysis, fixed cells were stored in the dark at approximately 4° C. for a period no longer than one week. Samples were analyzed on FACScan. Data were analyzed using WinMDI Software (Scripps Institute, build 1301-19-200, San Diego, Calif.).
Differentiation is accompanied by changes in the surface markers CD117 and CD11b. CD117 is a tyrosine kinase receptor that is expressed in high quantities on undifferentiated cells, while CD11b is a cell adhesion molecule expressed in high quantities on differentiated cells. After harvest, aliquots of the ribose and glucose control cells were allowed to differentiate with retinoic acid as above. An ELISA assay was set up with antibodies against CD117 or CD11b.

[13] = 10 mM ribose, cells differentiated with retinoic acid

Row | Structure (SMILES) | effect on incorporation of tritiated thymidine / metabolic processes [2] | viability at 96 h [3] [%] | change in viability versus control [4] | increase in rate of superoxide generation compared to HL-60 control cells [6] | reduction in cell growth compared to control HL-60 cells [11] [%] | Cell Growth (10^5 cells/ml) [11] | change in cell number over the 96-hour incubation period [11] | expression of cell surface marker reactive with CD11b antibody ([12]; ribose added to RA) | further results
1 | O=C[C@H](O)[C@H](O)[C@H](O)CO [D-Ribose] | deeply derange metabolic processes | 86.3 | slight reductions in viability | no significant increase | 30 | 6.68 +/− 1.29 10^5 cells/ml | nearly tripled in number | increased further | immune response parameters after diet supplementation and pathogen challenge [1]: benefit the immune response; energy level (skeletal muscle ATP, power output) [5]: enhances the energy level; change in ATP concentration versus HL-60 control [7]: slightly increased; spleen cell proliferation ([8]; low levels of ribose): slight, but non-significant stimulation; spleen cell proliferation ([8]; ribose above 5 mM): tended to inhibit proliferation; tolerability [9]: well tolerated; thymus cell proliferation ([10]; low levels of ribose): slight, but non-significant stimulation; thymus cell proliferation ([10]; ribose above 5 mM): tended to inhibit proliferation; increase in CD11b [12, 13]: threefold increase; reduction in CD117 [12, 13]: 30%; immature cell surface marker recognized by CD117 antibody ([12]; FIG. 2, ribose added to RA): reduced
2 | CC1=C(/C=C/C(C)=C/C=C/C(C)=C/C(=O)O)C(C)(C)CCC1 [RA, all-trans retinoic acid] |  | 84.5 | slight reductions in viability | 5.5 fold | 30 | 7.01 +/− 2.14 10^5 cells/ml | nearly tripled in number | high level of expression | viability at 1 μmol/L ([3]; Table 2, mean ± SD, n = 5): 82.6 ± 3.3%; Respiratory Burst (% of RA control) ([6]; Table 2, mean ± SD, n = 5): 100^B % of RA control; Growth (cell/ml) ([11]; Table 2, mean ± SD, n = 5): 727000 ± 102000 cells/mL; CD117 (%) ([12]; Table 2, immature cell marker, mean ± SD, n = 5): 33.4 ± 9.5^A %; CD11b (%) ([12]; Table 2, mature cell marker, mean ± SD, n = 5): 35.7 ± 7.5^B %
3 | [2H]C(=O)C[C@H](O)[C@H](O)CO [deoxy-D-Ribose, reference compound] | deeply derange metabolic processes |  |  |  |  |  |  |  | 
